# Results reported in patent US9676715B2, “Bis-indolic derivatives, a process for preparing the same and their uses as a drug” (UNIVERSITE JOSEPH FOURIER, priority 2011, dated 2017).
# How the values were obtained:
# [1] = system: MRC5 (human lung fibroblast); assay: In vitro cytotoxicity; type: cell-based; conditions: read-out: % of cellular growth inhibition; for inhibition at 10 µM: 10^−5 M; for inhibition at 1 µM: 10^−6 M
# Protocol: (§1) In vitro cytotoxicity was assayed on three cell lines—KB (human mouth carcinoma), MCR5 (human lung fibroblast) and HCT116 (human colon tumor). Results are presented in table IV as % of cellular growth inhibition in presence of 10^−5 M and 10^−6 M of the tested bis-indolic derivatives.
# [2] = system: HCT116 (human colon tumor); assay: In vitro cytotoxicity; type: cell-based; conditions: read-out: % of cellular growth inhibition; for inhibition at 10 µM: HCT-116, 10^−5 M; for inhibition at 1 µM: HCT-116, 10^−6 M
# Protocol: as §1
# [3] = system: KB (human mouth carcinoma); assay: In vitro cytotoxicity; type: cell-based; conditions: read-out: % of cellular growth inhibition; for inhibition at 10 µM: 10^−5 M; for inhibition at 1 µM: 10^−6 M
# Protocol: as §1
# [4] = system: HCT116 (human colon tumor); assay: In vitro cytotoxicity; type: cell-based; conditions: HCT-116, HCT116, from 100 μM to 0.005 μM in DMSO, duplicate
# [5] = system: S. aureus CIP 103428; assay: MIC, microdilution method (9.1); type: cell-based, Staphylococcus aureus; conditions: Staphylococcus aureus, CIP103428, read after 18 h, read-out: MIC
# Protocol: (§2) The microdilution method recommended by the Clinical and Laboratory Standard Institute [M07-A8, Vol. 29, No. 2] was used. The activity of indolic compounds was tested against 29 bacterial strains belonging to 17 different species and 12 different genera (Staphylococcus, Streptococcus, Enterococcus, Listeria, Bacillus, Haemophilus, Escherichia, Klebsiella, Enterobacter, Serratia, Pseudomonas, and Acinetobacter). Bacterial inocula were prepared in Mueller Hinton broth (MH2, bioMérieux, Marcy L'Etoile, France), supplemented with 10% sheep blood for fastidious species (i.e., Streptococcus pneumoniae and Haemophilus influenzae). They were dispensed in 96 well microtiter plates (5×10^5 CFU/ml of final inoculum). Indolic compounds were added to the wells as to obtain two-fold serial concentrations (0.50-128 mg/L of final concentrations). Plates were incubated at 37° C. in ambient air, or at 37° C. in 5% CO2 enriched atmosphere for fastidious species. […] Drug-free cultures served as growth controls. Cultures receiving gentamicin, ciprofloxacin or cefotaxime served as positive controls.
# [6] = system: S. aureus SA-1199B; assay: MIC, microdilution method (9.1); type: cell-based, Staphylococcus aureus; conditions: Staphylococcus aureus, SA1199B, 18 h
# Protocol: as §2
# [7] = system: S. aureus ATCC 6538; assay: MIC, microdilution method (9.1); type: cell-based, Staphylococcus aureus; conditions: Staphylococcus aureus, ATCC6538, read after 18 h, read-out: MIC
# Protocol: as §2
# [8] = system: S. aureus CIP 65.25 (MRSA); assay: MIC, microdilution method (9.1); type: cell-based, Staphylococcus aureus; conditions: Staphylococcus aureus, read after 18 h, read-out: MIC
# Protocol: as §2
# [9] = system: S. aureus ATCC 25923; assay: MIC, microdilution method (9.1); type: cell-based, Staphylococcus aureus; conditions: Staphylococcus aureus, ATCC25923, read after 18 h, read-out: MIC
# Protocol: as §2
# [10] = system: S. aureus ATCC 33592 (MRSA); assay: MIC, microdilution method (9.1); type: cell-based, Staphylococcus aureus; conditions: Staphylococcus aureus, read after 18 h, read-out: MIC
# Protocol: as §2
# [11] = system: S. aureus ATCC 106414 (VISA); assay: MIC, microdilution method (9.1); type: cell-based, Staphylococcus aureus; conditions: Staphylococcus aureus, read after 18 h, read-out: MIC
# Protocol: as §2
# [12] = system: S. aureus ATCC 9144; assay: MIC, microdilution method (9.1); type: cell-based, Staphylococcus aureus; conditions: Staphylococcus aureus, ATCC9144, read after 18 h, read-out: MIC
# Protocol: as §2
# [13] = system: S. aureus ATCC 29213; assay: MIC, microdilution method (9.1); type: cell-based, Staphylococcus aureus; conditions: Staphylococcus aureus, ATCC29213, read after 18 h, read-out: MIC
# Protocol: as §2
# [14] = system: S. aureus CIP 65.6; assay: MIC, microdilution method (9.1); type: cell-based, Staphylococcus aureus; conditions: Staphylococcus aureus, CIP65, read after 18 h, read-out: MIC
# Protocol: as §2
# [15] = system: S. epidermidis CIP 81.55; assay: MIC, microdilution method (9.1); type: cell-based, Staphylococcus epidermidis; conditions: Staphylococcus epidermidis, CIP81, read after 18 h, read-out: MIC
# Protocol: as §2
# [16] = system: S. epidermidis ATCC 12228; assay: MIC, microdilution method (9.1); type: cell-based, Staphylococcus epidermidis; conditions: Staphylococcus epidermidis, ATCC12228, read after 18 h, read-out: MIC
# Protocol: as §2
# [17] = system: S. epidermidis CIP 103627; assay: MIC, microdilution method (9.1); type: cell-based, Staphylococcus epidermidis; conditions: Staphylococcus epidermidis, CIP103627, read after 18 h, read-out: MIC
# Protocol: as §2
# [18] = system: Haemophilus influenzae ATCC 49766; assay: MIC, microdilution method (9.1); type: cell-based; conditions: ATCC49766; Haemophilus influenzae ATCC 49766; 10% sheep blood, 5% CO2; 18 h; read-out: MIC
# Protocol: as §2
# [19] = system: Listeria innocua CIP 80.11; assay: MIC, microdilution method (9.1); type: cell-based; conditions: CIP80, 18 h, read-out: MIC
# Protocol: as §2
# [20] = system: S. pneumoniae ATCC 49619; assay: MIC, microdilution method (9.1); type: cell-based; conditions: Streptococcus pneumoniae, ATCC49619, 10% sheep blood, 5% CO2, 18 h
# Protocol: as §2
# [21] = system: Klebsiella pneumoniae API ATCC 35657; assay: MIC, microdilution method (9.1); type: cell-based; conditions: ATCC35657, 18 h, read-out: MIC
# Protocol: as §2
# [22] = system: Acinetobacter baumanii ATCC 19606; assay: MIC, microdilution method (9.1); type: cell-based; conditions: Acinetobacter baumannii, ATCC19606, 18 h, read-out: MIC
# Protocol: as §2
# [23] = system: Enterobacter cloacae ATCC13047; assay: MIC, microdilution method (9.1); type: cell-based; conditions: 18 h
# Protocol: as §2
# [24] = system: Serratia marcescens CIP 103551; assay: MIC, microdilution method (9.1); type: cell-based; conditions: CIP103551, 18 h
# Protocol: as §2
# [25] = system: Escherichia coli ATCC 25922; assay: MIC, microdilution method (9.1); type: cell-based; conditions: ATCC25922, 18 h
# Protocol: as §2
# [26] = system: Pseudomonas aeruginosa CIP 5933; assay: MIC, microdilution method (9.1); type: cell-based; conditions: CIP5933, 18 h, read-out: MIC
# Protocol: as §2
# [27] = system: Bacillus subtilis CIP 5262; assay: MIC, microdilution method (9.1); type: cell-based; conditions: CIP5262, 18 h, read-out: MIC
# Protocol: as §2
# [28] = system: S. mitis CIP 103335; assay: MIC, microdilution method (9.1); type: cell-based, Streptococcus mitis; conditions: Streptococcus mitis, CIP103335, 18 h, read-out: MIC
# Protocol: as §2
# [29] = system: S. pneumoniae ATCC 6303; assay: MIC, microdilution method (9.1); type: cell-based, Streptococcus pneumoniae; conditions: Streptococcus pneumoniae, ATCC6303, 10% sheep blood, 5% CO2, 18 h, read-out: MIC
# Protocol: as §2
# [30] = system: S. pyogenes (group A) CIP 104226; assay: MIC, microdilution method (9.1); type: cell-based, Streptococcus pyogenes; conditions: Streptococcus pyogenes, CIP104226, 18 h, read-out: MIC
# Protocol: as §2
# [31] = system: E. faecalis ATCC 29212; assay: MIC, microdilution method (9.1); type: cell-based, Enterococcus faecalis; conditions: Enterococcus faecalis, ATCC29212, 18 h, read-out: MIC
# Protocol: as §2
# [32] = system: E. faecium CIP 54.32; assay: MIC, microdilution method (9.1); type: cell-based, Enterococcus faecium; conditions: Enterococcus faecium, CIP54, 18 h, read-out: MIC
# Protocol: as §2
# [33] = system: S. agalactiae (group B) ATCC 12400; assay: MIC, microdilution method (9.1); type: cell-based, Streptococcus agalactiae; conditions: Streptococcus agalactiae, ATCC12400, 18 h, read-out: MIC
# Protocol: as §2
SMILES,inhibition at 10 µM [1] [%],inhibition at 1 µM [1] [%],inhibition at 10 µM [2] [%],inhibition at 1 µM [2] [%],inhibition at 10 µM [3] [%],inhibition at 1 µM [3] [%],MIC [5] [µg/mL],MIC [6] [µg/mL],MIC [7] [µg/mL],MIC [8] [µg/mL],MIC [9] [µg/mL],MIC [10] [µg/mL],MIC [11] [µg/mL],MIC [12] [µg/mL],MIC [13] [µg/mL],MIC [14] [µg/mL],MIC [15] [µg/mL],MIC [16] [µg/mL],MIC [17] [µg/mL],MIC [18] [µg/mL],also measured
"CC(C)(C)OC(=O)NCC(NC(=O)c1c[nH]c2ccccc12)c1c[nH]c2ccc(Br)cc12 (centres unmarked) [Compound 3b, tert-Butyl (2-(5-bromo-1H-indol-3-yl)-2-(1H-indole-3-carboxamido)ethyl)carbamate]",8 ± 5,7,30 ± 2,0,41 ± 6,0,8,8,8,8,8,8,8,8,8,8,8,8,8,,IC50 ([4]; first value): 15 µM; IC50 ([4]; second value): 11.2 µM
"CC(C)(C)OC(=O)NCC(NC(=O)c1c[nH]c2ccccc12)c1c[nH]c2cc(Br)ccc12 (centres unmarked) [Compound 3d, tert-Butyl (2-(6-bromo-1H-indol-3-yl)-2-(1H-indolyl-3-carboxamido)ethyl)carbamate]",73 ± 6,0,73 ± 3,9,67 ± 3,0,8,8,8,8,8,8,8,8,8,8,16,16,16,64,MIC [19]: 32 µg/mL; MIC [20]: 64 µg/mL; MIC [21]: > 128 µg/mL; MIC [22]: > 128 µg/mL; MIC [23]: > 128 µg/mL; MIC [24]: > 128 µg/mL; MIC [25]: > 128 µg/mL; MIC [26]: > 128 µg/mL; MIC [27]: 64 µg/mL; MIC [28]: 64 µg/mL; MIC [29]: 64 µg/mL; MIC [30]: 64 µg/mL; MIC [31]: > 128 µg/mL; MIC [32]: 64 µg/mL; MIC [33]: 64 µg/mL
"CC(C)(C)OC(=O)NCC(NC(=O)c1c[nH]c2cc(Br)ccc12)c1c[nH]c2ccccc12 (centres unmarked) [Compound 3e, tert-Butyl (2-(1H-indol-3-yl)-2-(6-bromo-1H-indolyl-3-carboxamido)ethyl)carbamate]",92 ± 6,0,92 ± 1,2,99 ± 1,0,8,8,8,8,16,32,8,8,8,16,8,8,128,,
"CC(NC(=O)c1c[nH]c2ccc(F)cc12)c1c[nH]c2ccc(Br)cc12 (centres unmarked) [Compound 5, N-(1-(5-bromo-1H-indol-3-yl)ethyl)-5-fluoro-1H-indole-3-carboxamide]",,,,,,,16,,16,16,16,16,16,16,16,> 32,16,16,16,,
"O=C(NC(C(=O)NCCO)c1c[nH]c2ccc(Br)cc12)c1c[nH]c2ccc(Br)cc12 (centres unmarked) [Compound 14, 5-Bromo-N-(1-(5-bromo-1H-indol-3-yl)-2-((2-hydroxyethyl)amino)-2-oxoethyl)-1H-indole-3-carboxamide]",,,,,,,32,,32,32,32,32,32,32,32,> 32,32,32,32,> 128,MIC [19]: > 128 µg/mL; MIC [20]: 64 µg/mL; MIC [21]: > 32 µg/mL; MIC [22]: > 32 µg/mL; MIC [23]: > 32 µg/mL; MIC [24]: > 32 µg/mL; MIC [25]: > 32 µg/mL; MIC [26]: > 32 µg/mL; MIC [27]: > 128 µg/mL; MIC [28]: > 128 µg/mL; MIC [29]: 128 µg/mL; MIC [30]: 64 µg/mL; MIC [31]: > 128 µg/mL; MIC [32]: > 128 µg/mL; MIC [33]: 64 µg/mL
"O=C(NC(C(=O)NCCCCO)c1c[nH]c2ccc(Br)cc12)c1c[nH]c2ccc(Br)cc12 (centres unmarked) [Compound 15, 5-Bromo-N-(1-(5-bromo-1H-indol-3-yl)-2-((4-hydroxybutyl)amino)-2-oxoethyl)-1H-indole-3-carboxamide]",,,,,,,16,,16,32,32,32,32,32,16,32,> 32,32,32,> 128,MIC [19]: > 128 µg/mL; MIC [20]: 128 µg/mL; MIC [21]: > 32 µg/mL; MIC [22]: > 32 µg/mL; MIC [23]: > 32 µg/mL; MIC [24]: > 32 µg/mL; MIC [25]: > 32 µg/mL; MIC [26]: > 32 µg/mL; MIC [27]: > 128 µg/mL; MIC [28]: > 128 µg/mL; MIC [29]: 128 µg/mL; MIC [30]: 128 µg/mL; MIC [31]: > 128 µg/mL; MIC [32]: > 128 µg/mL; MIC [33]: 64 µg/mL
